Data reported in the NIST ThermoML archive (doi:10.1021/je300507h).
Numbers after ± are expanded uncertainties.

Conditions: 101.33 kPa, Liquid; for viscosity: Capillary tube (Ostwald / Ubbelohde) method; for electrical conductivity: Wayne-Kerr 6430B Autobalance Bridge electrode

viscosity (303.15 K) | electrical conductivity (303.15 K) | electrical conductivity (308.15 K) | viscosity (313.15 K) | electrical conductivity (313.15 K) | electrical conductivity (318.15 K) | viscosity (323.15 K) | electrical conductivity (323.15 K) | electrical conductivity (328.15 K) | viscosity (333.15 K) | electrical conductivity (333.15 K) | electrical conductivity (338.15 K) | viscosity (343.15 K) | electrical conductivity (343.15 K) | electrical conductivity (323.05 K) | SMILES
288.8 ± 12 mPa·s | 0.0731 ± 0.00074 S/m | 0.1014 ± 0.001 S/m | 149.9 ± 4.2 mPa·s | 0.136 ± 0.0014 S/m | 0.178 ± 0.0018 S/m | 86.13 ± 1.5 mPa·s | 0.229 ± 0.0023 S/m | 0.2902 ± 0.0029 S/m | 53.43 ± 0.58 mPa·s | 0.36 ± 0.0036 S/m | 0.44 ± 0.0044 S/m | 35.33 ± 0.44 mPa·s | 0.5319 ± 0.0053 S/m | – | CC(=O)[O-].CCCCn1cc[n+](C)c1 [1-butyl-3-methylimidazolium acetate]
364.3 ± 16 mPa·s | 0.04102 ± 0.00041 S/m | 0.0558 ± 0.00056 S/m | 193.1 ± 6.3 mPa·s | 0.0752 ± 0.00076 S/m | 0.0992 ± 0.001 S/m | 111.6 ± 2.4 mPa·s | – | 0.165 ± 0.0017 S/m | 69.24 ± 0.9 mPa·s | 0.208 ± 0.0021 S/m | 0.258 ± 0.0026 S/m | 45.43 ± 0.58 mPa·s | 0.315 ± 0.0032 S/m | 0.129 ± 0.0013 S/m | CCCC(=O)[O-].CCCC[n+]1ccn(C)c1 [3-butyl-1-methyl-1H-imidazolium butanoate]
138.5 ± 3.4 mPa·s | 0.1909 ± 0.0019 S/m | 0.249 ± 0.0025 S/m | 80.53 ± 1.3 mPa·s | 0.319 ± 0.0032 S/m | 0.4019 ± 0.004 S/m | 50.78 ± 0.53 mPa·s | 0.498 ± 0.005 S/m | 0.6125 ± 0.0061 S/m | 34 ± 0.37 mPa·s | 0.738 ± 0.0074 S/m | 0.88 ± 0.0088 S/m | 23.94 ± 0.27 mPa·s | 1.04 ± 0.01 S/m | – | CCCC[n+]1ccn(C)c1.O=C[O-] [3-butyl-1-methyl-1H-imidazolium formate]
325.7 ± 14 mPa·s | 0.0703 ± 0.00071 S/m | 0.0902 ± 0.00091 S/m | 171.5 ± 5.2 mPa·s | 0.1201 ± 0.0012 S/m | 0.156 ± 0.0016 S/m | 99.27 ± 1.9 mPa·s | – | 0.248 ± 0.0025 S/m | 61.78 ± 0.72 mPa·s | 0.306 ± 0.0031 S/m | 0.3716 ± 0.0037 S/m | 40.75 ± 0.51 mPa·s | 0.447 ± 0.0045 S/m | 0.198 ± 0.002 S/m | CCC(=O)[O-].CCCC[n+]1ccn(C)c1 [3-butyl-1-methyl-1H-imidazolium propanoate]
